The values below come from US12268690B2, “Treatments for mutations in acute myeloid leukemia” (OREGON HEALTH & SCIENCE UNIVERSITY, priority 2018, dated 2025).

The experiment concerns freshly isolated mononuclear cells from AML samples. In words: Ex vivo functional drug screen (MTS viability, AUC) on primary AML samples, compared by mutation or clinical group. The class given is cell-based, human. The source says: This panel contained graded concentrations of a drugs with activity against two-thirds of the tyrosine kinome as well as other non-tyrosine kinase pathways, including MAPKs, PI3K/AKT/mTOR, AMPK, ATM, Aurora kinases, CAMKs, CDKs, GSK3a/b, IκK, PKA, PKC, PLK1, and RAF. In addition, the library contained small molecule inhibitors with activity against the BCL2 family, BRD4, Hedgehog, HSP90, NOTCH/gamma-secretase, proteasome, survivin, STAT3, and WNT/beta-catenin. Drug sensitivity patterns were analyzed with respect to clinical and genetic features of tumors. We compared the average area-under-the curve (AUC) values for each drug between the de novo and transformed samples via a series of single factor ANOVAs. […] In addition, we analyzed the concordance of drug sensitivity patterns with respect to predicted target gene, gene family, or pathway for each drug. […] To create a global view of overall sensitivity or resistance of each case, we generated a heatmap of binary sensitive/resistant calls for each sample to each drug.
Correlation of drug sensitivity with mutational events was performed by assessing the range of sensitivity of cases with mutation of an individual gene (as well as co-occurring mutational events) versus cases with wild type sequence for that same gene. […] The difference in average drug sensitivity of mutant versus wild type cases for each drug/mutation pair was plotted on the horizontal axis of a volcano plot with a test for statistical significance of the comparison plotted on the vertical axis (corrected for multiple comparison false discovery rate^42; FIG. 4). […] To aid in discovery of potential mutational biomarkers of drug sensitivity, we plotted volcano plots that were specific to each individual drug (versus all possible mutational events) and for each individual gene (versus all possible drugs tested).
Ex vivo drug screens were performed on freshly isolated mononuclear cells from AML samples as previously described^41.
Ex vivo functional drug screens were performed on freshly isolated mononuclear cells from AML samples. […] Drug plates were created using inhibitors purchased from LC Laboratories and Selleck Chemicals and master stocks were reconstituted in DMSO and stored at −80° C. […] DMSO control wells and positive control wells containing a drug combination of Flavopiridol, Staurosporine and Velcade were placed on each plate, with the final concentration of DMSO ≤0.1% in all wells. Daughter plates were created using a V&P Scientific 384-well pin tool head operated by the Caliper Sciclone ALH 3000 and equipped with 0.457 mm diameter, 30 nanoliter, slotted stainless steel pins (cat num: FP1NS30). Daughter and destination plates were sealed with pealable thermal seals using a PlateLoc thermal sealer. Destination plates were stored at −20° C. for no more than three months and thawed immediately before use. Primary mononuclear cells were plated across single-agent inhibitor panels within 24 h of collection. […] After 3 d of culture at 37° C. in 5% CO2, MTS reagent (CellTiter96 AQueous One; Promega) was added, optical density was measured at 490 nm, and raw absorbance values were adjusted to a reference blank value and then used to determine cell viability (normalized to untreated control wells).
A given sample was run on one or more panels and within each panel, the majority of drugs were run without within-panel replicates. […] An additional set of ‘curve-free’ AUCs was computed for sample-inhibitor pairs run on multiple panels.
Based on the methodology used in our prior drug combination study^36, a probit regression was fit to all possible run groups using the model: (normalized_viability/100)˜1+log 10(concentration) Where for all groups there were N=7 dose-response measurements. The summary measures of curve fit were inspected and cutoffs were devised removing all runs with an AIC >12 and deviance >2.

Turning to `COc1cc2nccc(Oc3ccc(NC(=O)Nc4cc(C)on4)c(Cl)c3)c2cc1OC` [Tivozanib], the “drug sensitivity mutant vs wild type (average difference in AUC; top left quadrant of volcano plot)” value is, setting by setting: (CELSR2) “Tivozanib (AV-951)”; (FLT3_ITD) “tivozanib”; (NPM1) “Tivozanib”; (NPM1:FLT3_ITD) “Tivozanib”; (NPM1:FLT3_ITD:DNMT3A) “tivozanib”.

On to `C#Cc1cccc(Nc2ncnc3cc(OCCOC)c(OCCOC)cc23)c1` [erlotinib], for which the “drug sensitivity mutant vs wild type (average difference in AUC; top left quadrant of volcano plot)” value is “erlotinib” (FLT3_ITD:DNMT3A); “erlotinib” (NPM1); “erlotinib” (NPM1:FLT3_ITD:DNMT3A); “erlotinib” (NPM1:FLT3_ITD:TET2); “erlotinib” (NPM1:IDH1); “erlotinib” (NPM1:IDH2). For the same compound, the “drug sensitivity mutant vs wild type (average difference in AUC; top left quadrant of volcano plot)” value (NPM1:SRSF2) is recorded as “erlotinib”.

As to `O=C(NOCC1CC1)c1ccc(F)c(F)c1Nc1ccc(I)cc1Cl` [CI-1040], the “drug sensitivity mutant vs wild type (average difference in AUC; top left quadrant of volcano plot)” value runs as follows: (DNMT3A:NRAS) “CI-1040 (PD184352)”; (NPM1:DNMT3A:NRAS) “CI-1040”; (NPM1:NRAS) “CI-1040 (PD184352)”; (NRAS) “CI-1040”.

On to `Cn1cc(-c2ccc3nnc(Sc4ccc5ncccc5c4)n3n2)cn1` [SGX-523, 6-((6-(1-methyl-1H-pyrazol-4-yl)-[1,2,4]triazolo[4,3-b]pyridazin-3-yl)thio)quinoline], for which the “drug sensitivity mutant vs wild type (average difference in AUC; top left quadrant of volcano plot)” value was “SGX-523” (NPM1:CEBPA), “SGX-523” (NPM1:IDH2), “SGX-523” (NPM1:SRSF2) and “SGX-523” (NPM1:SRSF2:IDH2).

Turning to `CNC(=O)c1cc(Oc2ccc(NC(=O)Nc3ccc(Cl)c(C(F)(F)F)c3)cc2)ccn1` [Sorafenib], the “drug sensitivity mutant vs wild type (average difference in AUC; top left quadrant of volcano plot)” value is, setting by setting: (DNMT3A) “Sorafenib”; (NPM1) “Sorafenib”; (NPM1:DNMT3A) “Sorafenib”; (NPM1:IDH2) “sorafenib”; (NPM1:SRSF2) “sorafenib”; (NPM1:TET2) “Sorafenib”.

For `CS(=O)(=O)CCNCc1ccc(-c2ccc3ncnc(Nc4ccc(OCc5cccc(F)c5)c(Cl)c4)c3c2)o1` [Lapatinib], the “drug sensitivity mutant vs wild type (average difference in AUC; top left quadrant of volcano plot)” value is reported as “lapitinib” (FLT3_ITD_IHD2); “Lapatinib” (NPM1); “lapatinib” (NPM1:FLT3_ITD); “Lapatinib” (NPM1:IDH2); “Lapatinib” (NPM1:SRSF2); “lapatinib” (SMC1A).

Take `COc1ccc(COc2ccc(Cc3cnc(N)nc3N)cc2OC)cc1` [GW-2580]: the “drug sensitivity mutant vs wild type (average difference in AUC; top left quadrant of volcano plot)” value is, setting by setting: (IDH2) “GW-2580”; (NPM1:IDH2) “GW-2580”; (NPM1:SRSF2) “gw-2580”.

`Cc1[nH]c(/C=C2\C(=O)Nc3ccc(S(=O)(=O)Cc4c(Cl)cccc4Cl)cc32)c(C)c1C(=O)N1CCC[C@@H]1CN1CCCC1` [PHA-665752]: the “drug sensitivity mutant vs wild type (average difference in AUC; top left quadrant of volcano plot)” value (IDH2) is “PHA-665752”.

With `Nc1nc(Nc2ccc(S(N)(=O)=O)cc2)nn1C(=O)c1c(F)cccc1F` [JNJ-7706621, 4-((5-amino-1-(2,6-difluorobenzoyl)-1H-1,2,4-triazol-3-yl)amino)benzenesulfonamide], the “drug sensitivity mutant vs wild type (average difference in AUC; top left quadrant of volcano plot)” value is, setting by setting: (NPM1:DNMT3A) “JNJ-7706621”; (NPM1:IDH1) “JNJ-7706621”.

Turning to `Cn1c(Nc2ccc(C(F)(F)F)cc2)nc2cc(Oc3ccnc(-c4ncc(C(F)(F)F)[nH]4)c3)ccc21` [RAF265, 1-methyl-5-((2-(5-(trifluoromethyl)-1H-imidazol-2-yl)pyridin-4-yl)oxy)-N-(4-(trifluoromethyl)phenyl)-1H-benzo[d]imidazol-2-amine], the “drug sensitivity mutant vs wild type (average difference in AUC; top left quadrant of volcano plot)” value is reported as “RAF265” (BCOR) and “RAF265” (WT1).

In the case of `CCn1c(-c2nonc2N)nc2c(C#CC(C)(C)O)ncc(OC[C@H]3CCCNC3)c21` [GSK690693], the “drug sensitivity mutant vs wild type (average difference in AUC; top left quadrant of volcano plot)” value (MLLT3.KMT2A) is on record as “GSK690693”.

As to `CC1(C)CNc2cc(NC(=O)c3cccnc3NCc3ccncc3)ccc21` [motesanib], the “drug sensitivity mutant vs wild type (average difference in AUC; top left quadrant of volcano plot)” value (FLT3_ITD:RUNX1) was “motesanib”.

As to `NC1(c2ccc(-c3nc4ccn5c(=O)[nH]nc5c4cc3-c3ccccc3)cc2)CCC1` [MK-2206], the “drug sensitivity mutant vs wild type (average difference in AUC; top left quadrant of volcano plot)” value (WT1) is “MK-2206”.

In the case of `C=CC(=O)Nc1cc2c(Nc3ccc(F)c(Cl)c3)ncnc2cc1OCCCN1CCOCC1` [canertinib], the “drug sensitivity mutant vs wild type (average difference in AUC; top left quadrant of volcano plot)” value (FLT3_ITD) is “canertinib”; the “drug sensitivity mutant vs wild type (average difference in AUC; top left quadrant of volcano plot)” value (FLT3_ITD:TET2) is recorded as “canertinib”; the “drug sensitivity mutant vs wild type (average difference in AUC; top left quadrant of volcano plot)” value (FLT3_ITD_IHD2) is on record as “canertinib”; the “drug sensitivity mutant vs wild type (average difference in AUC; top left quadrant of volcano plot)” value (NPM1:FLT3_ITD) is “canertinib”; the “drug sensitivity mutant vs wild type (average difference in AUC; top left quadrant of volcano plot)” value (SMC1A) was “canertinib”.

`CC1(COc2ccc3c(c2)ncn3-c2ccc3cccc(N4CCC(N)CC4)c3n2)COC1` [Crenolanib]: the “drug sensitivity mutant vs wild type (average difference in AUC; top left quadrant of volcano plot)” value is, setting by setting: (CBFB.MYH11) “Crenolanib”; (DNMT3A:FLT3) “Crenolanib”; (NPM1) “crenolanib”; (NPM1:DNMT3A) “Crenolanib”.

Consider `COc1cc2c(Oc3ccc(NC(=O)C4(C(=O)Nc5ccc(F)cc5)CC4)cc3F)ccnc2cc1OCCCN1CCOCC1` [Foretinib], for which the “drug sensitivity mutant vs wild type (average difference in AUC; top left quadrant of volcano plot)” value is, setting by setting: (FLT3) “Foretinib (XL880)”; (FLT3_ITD:TET2:DNMT3A) “Foretinib”; (FLT3_ITD:WT1) “foretinib”; (IDH2) “Foretinib”; (NPM1) “Foretinib”; (NPM1:DNMT3A) “foretinib”. Further, the “drug sensitivity mutant vs wild type (average difference in AUC; top left quadrant of volcano plot)” value runs as follows: (NPM1:FLT3) “Foretinib”; (NPM1:FLT3_ITD) “foretinib”; (NPM1:FLT3_ITD:DNMT3A) “foretinib”; (NPM1:SRSF2) “Foretinib”; (SMC1A) “foretinib”.
